Read-outs that look alike come from different tables or passages of the source.
System: transgenic soybean expressing mutated PPO
Format: in vivo, Glycine max
Settings: T1 soybean, field
For injury (1-5 point scale) in this document: key: 1: no obvious damage (no phytotoxicity); 2: minor amount of leaf damage, plant will survive; 3: moderate amount of leaf damage, plant will survive; 4: severe amount of leaf damage, plant will survive; 5: no surviving plants - all plants dead/dying.

SMILES: CC(C)N(C)S(=O)(=O)NC(=O)c1cc(-n2c(=O)cc(C(F)(F)F)n(C)c2=O)c(F)cc1Cl [Saflufenacil, saflufenacil]
- Injury rating (1-5 point scale) (AmtuPPX2L_R128A_F420V (event 10), saflufenacil: treatment 1 150 g ai/ha, treatment 2 0, 7 DAT): 3
- Injury rating (1-5 point scale) (AmtuPPX2L_R128A_F420V (event 10), saflufenacil: treatment 1 300 g ai/ha, treatment 2 300 g ai/ha, 14 DAT): 3
- Injury rating (1-5 point scale) (SDS-10533 LTM382-2 AmtuPPX2L_F420L, Saflufenacil (75 gai/ha), 3 days after treatment): 2.5
- Injury rating (1-5 point scale) (SDS-10533 LTM382-2 AmtuPPX2L_F420L, Saflufenacil (150 gai/ha), 3 days after treatment): 2.5
- Injury rating (1-5 point scale) (SDS-10544 LTM382-2 AmtuPPX2L_F420L, Saflufenacil (75 gai/ha), 3 days after treatment): 2.5
- Injury rating (1-5 point scale) (SDS-10544 LTM382-2 AmtuPPX2L_F420L, Saflufenacil (150 gai/ha), 3 days after treatment): 2.5
- Injury rating (1-5 point scale) (SDS-10558 LTM382-2 AmtuPPX2L_F420L, Saflufenacil (75 gai/ha), 3 days after treatment): 2.5
- Injury rating (1-5 point scale) (SDS-10558 LTM382-2 AmtuPPX2L_F420L, Saflufenacil (150 gai/ha), 3 days after treatment): 2
- Injury rating (1-5 point scale) (SDS-10562 LTM377-1 AmtuPPX2L_dG210, Saflufenacil (75 gai/ha), 3 days after treatment): 4
- Injury rating (1-5 point scale) (SDS-10562 LTM377-1 AmtuPPX2L_dG210, Saflufenacil (150 gai/ha), 3 days after treatment): 4
- Injury rating (1-5 point scale) (SDS-10566 LTM377-1 AmtuPPX2L_dG210, Saflufenacil (75 gai/ha), 3 days after treatment): 4
- Injury rating (1-5 point scale) (SDS-10566 LTM377-1 AmtuPPX2L_dG210, Saflufenacil (150 gai/ha), 3 days after treatment): 4
- Injury rating (1-5 point scale) (SDS-10633 LTM383-1 AmtuPPX2L_F420M, Saflufenacil (75 gai/ha), 3 days after treatment): 3
- Injury rating (1-5 point scale) (SDS-10633 LTM383-1 AmtuPPX2L_F420M, Saflufenacil (150 gai/ha), 3 days after treatment): 3
- Injury rating (1-5 point scale) (SDS-10635 LTM383-1 AmtuPPX2L_F420M, Saflufenacil (75 gai/ha), 3 days after treatment): 3.5
- Injury rating (1-5 point scale) (SDS-10635 LTM383-1 AmtuPPX2L_F420M, Saflufenacil (150 gai/ha), 3 days after treatment): 3.5
- Injury rating (1-5 point scale) (SDS-10642 LTM384-1 AmtuPPX2L_R128A_F420L, Saflufenacil (75 gai/ha), 3 days after treatment): 2
- Injury rating (1-5 point scale) (SDS-10642 LTM384-1 AmtuPPX2L_R128A_F420L, Saflufenacil (150 gai/ha), 3 days after treatment): 2
- Injury rating (1-5 point scale) (SDS-10645 LTM383-1 AmtuPPX2L_F420M, Saflufenacil (75 gai/ha), 3 days after treatment): 4
- Injury rating (1-5 point scale) (SDS-10645 LTM383-1 AmtuPPX2L_F420M, Saflufenacil (150 gai/ha), 3 days after treatment): 3
- Injury rating (1-5 point scale) (SDS-10646 LTM383-1 AmtuPPX2L_F420M, Saflufenacil (75 gai/ha), 3 days after treatment): 2.5
- Injury rating (1-5 point scale) (SDS-10646 LTM383-1 AmtuPPX2L_F420M, Saflufenacil (150 gai/ha), 3 days after treatment): 2.5
- injury (1-5 point scale) (SDS-10648 AmtuPPX2L R128A_F420I, Saflufenacil 75 g ai/ha, 3 days after treatment): 2
- injury (1-5 point scale) (SDS-10648 AmtuPPX2L R128A_F420I, Saflufenacil 150 g ai/ha, 3 days after treatment): 2
- Injury rating (1-5 point scale) (SDS-10648 LTM386-1 AmtuPPX2L_R128A_F420I, Saflufenacil (75 gai/ha), 3 days after treatment): 3
- Injury rating (1-5 point scale) (SDS-10648 LTM386-1 AmtuPPX2L_R128A_F420I, Saflufenacil (150 gai/ha), 3 days after treatment): 3
- Injury rating (1-5 point scale) (SDS-10656 LTM377-1 AmtuPPX2L_dG210, Saflufenacil (75 gai/ha), 3 days after treatment): 3.5
- Injury rating (1-5 point scale) (SDS-10656 LTM377-1 AmtuPPX2L_dG210, Saflufenacil (150 gai/ha), 3 days after treatment): 3.5
- Injury rating (1-5 point scale) (SDS-10658 LTM386-1 AmtuPPX2L_R128A_F420I, Saflufenacil (75 gai/ha), 3 days after treatment): 3.5
- Injury rating (1-5 point scale) (SDS-10658 LTM386-1 AmtuPPX2L_R128A_F420I, Saflufenacil (150 gai/ha), 3 days after treatment): 3.5
- Injury rating (1-5 point scale) (SDS-10761 LTM383-1 AmtuPPX2L_F420M, Saflufenacil (75 gai/ha), 3 days after treatment): 3
- Injury rating (1-5 point scale) (SDS-10761 LTM383-1 AmtuPPX2L_F420M, Saflufenacil (150 gai/ha), 3 days after treatment): 3
- Injury rating (1-5 point scale) (SDS-10776 LTM386-1 AmtuPPX2L_R128A_F420I, Saflufenacil (75 gai/ha), 3 days after treatment): 2
- Injury rating (1-5 point scale) (SDS-10776 LTM386-1 AmtuPPX2L_R128A_F420I, Saflufenacil (150 gai/ha), 3 days after treatment): 2.5
- Injury rating (1-5 point scale) (SDS-10787 LTM384-1 AmtuPPX2L_R128A_F420L, Saflufenacil (75 gai/ha), 3 days after treatment): 3
- Injury rating (1-5 point scale) (SDS-10787 LTM384-1 AmtuPPX2L_R128A_F420L, Saflufenacil (150 gai/ha), 3 days after treatment): 2.5
- injury (1-5 point scale) (SDS-10791 AmtuPPX2L R128A_F420I, Saflufenacil 75 g ai/ha, 3 days after treatment): 2
- injury (1-5 point scale) (SDS-10791 AmtuPPX2L R128A_F420I, Saflufenacil 150 g ai/ha, 3 days after treatment): 2
- Injury rating (1-5 point scale) (SDS-10791 LTM386-1 AmtuPPX2L_R128A_F420I, Saflufenacil (75 gai/ha), 3 days after treatment): 2
- Injury rating (1-5 point scale) (SDS-10791 LTM386-1 AmtuPPX2L_R128A_F420I, Saflufenacil (150 gai/ha), 3 days after treatment): 2
- Injury rating (1-5 point scale) (SDS-10985 LTM385-1 AmtuPPX2L_R128A_F420M, Saflufenacil (75 gai/ha), 3 days after treatment): 2
- Injury rating (1-5 point scale) (SDS-10985 LTM385-1 AmtuPPX2L_R128A_F420M, Saflufenacil (150 gai/ha), 3 days after treatment): 2
- Injury rating (1-5 point scale) (SDS-10990 LTM385-1 AmtuPPX2L_R128A_F420M, Saflufenacil (75 gai/ha), 3 days after treatment): 2.5
- Injury rating (1-5 point scale) (SDS-10990 LTM385-1 AmtuPPX2L_R128A_F420M, Saflufenacil (150 gai/ha), 3 days after treatment): 2.5
- Injury rating (1-5 point scale) (SDS-10998 LTM387-1 AmtuPPX2L_R128A_F420V, Saflufenacil (75 gai/ha), 3 days after treatment): 2
- Injury rating (1-5 point scale) (SDS-10998 LTM387-1 AmtuPPX2L_R128A_F420V, Saflufenacil (150 gai/ha), 3 days after treatment): 2
- Injury rating (1-5 point scale) (SDS-11011 LTM385-1 AmtuPPX2L_R128A_F420M, Saflufenacil (75 gai/ha), 3 days after treatment): 2
- Injury rating (1-5 point scale) (SDS-11011 LTM385-1 AmtuPPX2L_R128A_F420M, Saflufenacil (150 gai/ha), 3 days after treatment): 2
- injury (1-5 point scale) (SDS-11014 AmtuPPX2L R128A_F420I, Saflufenacil 75 g ai/ha, 3 days after treatment): 2
- injury (1-5 point scale) (SDS-11014 AmtuPPX2L R128A_F420I, Saflufenacil 150 g ai/ha, 3 days after treatment): 2
- Injury rating (1-5 point scale) (SDS-11014 LTM386-1 AmtuPPX2L_R128A_F420I, Saflufenacil (75 gai/ha), 3 days after treatment): 2
- Injury rating (1-5 point scale) (SDS-11014 LTM386-1 AmtuPPX2L_R128A_F420I, Saflufenacil (150 gai/ha), 3 days after treatment): 2
- injury (1-5 point scale) (SDS-11034 AmtuPPX2L L397D_F420V, Saflufenacil 75 g ai/ha, 3 days after treatment): 2
- injury (1-5 point scale) (SDS-11034 AmtuPPX2L L397D_F420V, Saflufenacil 150 g ai/ha, 3 days after treatment): 2
- Injury rating (1-5 point scale) (SDS-11034 LTM387-1 AmtuPPX2L_R128A_F420V, Saflufenacil (75 gai/ha), 3 days after treatment): 3
- Injury rating (1-5 point scale) (SDS-11034 LTM387-1 AmtuPPX2L_R128A_F420V, Saflufenacil (150 gai/ha), 3 days after treatment): 2
- injury (1-5 point scale) (SDS-11035 AmtuPPX2L R128A_F420V, Saflufenacil 75 g ai/ha, 3 days after treatment): 2
- injury (1-5 point scale) (SDS-11035 AmtuPPX2L R128A_F420V, Saflufenacil 150 g ai/ha, 3 days after treatment): 2
- Injury rating (1-5 point scale) (SDS-11035 LTM387-1 AmtuPPX2L_R128A_F420V, Saflufenacil (75 gai/ha), 3 days after treatment): 2
- Injury rating (1-5 point scale) (SDS-11035 LTM387-1 AmtuPPX2L_R128A_F420V, Saflufenacil (150 gai/ha), 3 days after treatment): 2
- Injury rating (1-5 point scale) (SDS-11036 LTM386-1 AmtuPPX2L_R128A_F420I, Saflufenacil (75 gai/ha), 3 days after treatment): 2.5
- Injury rating (1-5 point scale) (SDS-11036 LTM386-1 AmtuPPX2L_R128A_F420I, Saflufenacil (150 gai/ha), 3 days after treatment): 2.5
- injury (1-5 point scale) (SDS-11052 AmtuPPX2L R128A_F420M, Saflufenacil 75 g ai/ha, 3 days after treatment): 2
- injury (1-5 point scale) (SDS-11052 AmtuPPX2L R128A_F420M, Saflufenacil 150 g ai/ha, 3 days after treatment): 2
- Injury rating (1-5 point scale) (SDS-11052 LTM385-1 AmtuPPX2L_R128A_F420M, Saflufenacil (75 gai/ha), 3 days after treatment): 3
- Injury rating (1-5 point scale) (SDS-11052 LTM385-1 AmtuPPX2L_R128A_F420M, Saflufenacil (150 gai/ha), 3 days after treatment): 3
- Injury rating (1-5 point scale) (SDS-11105 LTM387-1 AmtuPPX2L_R128A_F420V, Saflufenacil (75 gai/ha), 3 days after treatment): 2.5
- Injury rating (1-5 point scale) (SDS-11105 LTM387-1 AmtuPPX2L_R128A_F420V, Saflufenacil (150 gai/ha), 3 days after treatment): 2.5
- Injury rating (1-5 point scale) (SDS-11110 LTM387-1 AmtuPPX2L_R128A_F420V, Saflufenacil (75 gai/ha), 3 days after treatment): 2.5
- Injury rating (1-5 point scale) (SDS-11110 LTM387-1 AmtuPPX2L_R128A_F420V, Saflufenacil (150 gai/ha), 3 days after treatment): 2.5
- Injury rating (1-5 point scale) (SDS-11111 LTM386-1 AmtuPPX2L_R128A_F420I, Saflufenacil (75 gai/ha), 3 days after treatment): 2.5
- Injury rating (1-5 point scale) (SDS-11111 LTM386-1 AmtuPPX2L_R128A_F420I, Saflufenacil (150 gai/ha), 3 days after treatment): 2.5
- Injury rating (1-5 point scale) (SDS-11118 LTM386-1 AmtuPPX2L_R128A_F420I, Saflufenacil (75 gai/ha), 3 days after treatment): 2
- Injury rating (1-5 point scale) (SDS-11118 LTM386-1 AmtuPPX2L_R128A_F420I, Saflufenacil (150 gai/ha), 3 days after treatment): 2
- Injury rating (1-5 point scale) (Wildtype Jake, Saflufenacil (75 gai/ha), 3 days after treatment (Table 11e)): 5
- Injury rating (1-5 point scale) (Wildtype Jake, Saflufenacil (75 gai/ha), 3 days after treatment (Table 11d)): 5
- Injury rating (1-5 point scale) (Wildtype Jake, Saflufenacil (150 gai/ha), 3 days after treatment (Table 11e)): 5
- Injury rating (1-5 point scale) (Wildtype Jake, Saflufenacil (150 gai/ha), 3 days after treatment (Table 11d)): 5
- injury (1-5 point scale) (wild type, Saflufenacil 75 g ai/ha, 3 days after treatment): 5
- injury (1-5 point scale) (wild type, Saflufenacil 150 g ai/ha, 3 days after treatment): 5
- Injury rating (1-5 point scale) (wild type, saflufenacil: treatment 1 150 g ai/ha, treatment 2 0, 7 DAT): 5
- Injury rating (1-5 point scale) (wild type, saflufenacil: treatment 1 300 g ai/ha, treatment 2 300 g ai/ha, 14 DAT): 5
